Assay results: patent US6750244B2, “Compounds active at a novel site on receptor-operated calcium channels useful for treatment of neurological disorders and diseases” (NPS Pharmaceuticals, Inc., priority 1993, dated 2004)
“Also recorded” adds a separate entry of the source. Where two headings read alike, the source gives them in different places.

Tests used:
[1] = molecular target: NMDA receptor-ionophore complex (site labeled by [3H]MK-801); test: Inhibition of [3H]MK-801 binding in rat cortical/hippocampal washed membrane preparations; conditions: read-out: IC50 (μM) vs. [3H]MK-801; rat cortical/hippocampal washed membranes
[2] = tested on: PCP-like discriminative stimulus effects; format: in vivo, rats
Description: In this assay, rats who have been trained to lever press for food reinforcement must select which of two levers in their cages is correct. The only stimulus they hive for selecting the correct lever is their ability to detect whether they received a PCP or vehicle injection After about two months of training, rats become very good at discriminating PCP from vehicle injections and can then be tested with other drugs to determine if they are discriminated as PCP. When tested in this procedure, other drugs which are known to produce a PCP-like intoxication substitute for PCP. These drugs include various PCP analogs such as ketamine and the noncompetitive NMDA receptor antagonist, MK-801.

[3] = tested on: sound-induced seizures; test: Sound-induced seizures in Frings mice (reflex epilepsy); format: in vivo
[4] = tested on: mean arterial blood pressure; conditions: rats
[5] = tested on: T1, L-type calcium channel; test: Inhibition of KCl depolarization-induced increases in intracellular calcium in cultured rat cerebellar granule cells; format: cell-based
T1 construct: L-type calcium channel: estimated IC50, KCl depolarization-induced increases in intracellular calcium; other: cultured
Description: (§1) The ability of arylalkylamines to inhibit dihydropyridine-sensitive Ca^2+ channels was examined in cerebellar granule cells and a rat aortic smooth muscle cell line, A7r5 cells.

[6] = tested on: NMDA receptors; conditions: patch clamp
[7] = tested on: thermal nociception; format: in vivo, rats; conditions: 0.3-3 nmol i.th.
Description: In these experiments, a 52° C. hot plate was used as the nociceptive stimulus.

[8] = molecular target: AMPA receptor; conditions: read-out: IC50 for the AMPA receptor-mediated response; rat hippocampal slices
Description: (§2) Glutamate-mediated transmission at synapses of Schaffer collateral fibers and CA1 pyramidal cells was measured in slices of rat brain containing the hippocampus. This assay measures electrophysiologically the postsynaptic depolarization caused by the presynaptic release of glutamate, and can readily distinguish synaptic transmission mediated by NMDA or AMPA receptors.

[9] = tested on: NMDA receptor; conditions: rat hippocampal slices
Description: as §2

[10] = tested on: NMDA receptor; test: Inhibition of NMDA/glycine-induced increases in intracellular calcium in cultured rat cerebellar granule cells (RCGC); format: cell-based
[11] = tested on: neuronal vacuolization; conditions: i.p.
[12] = tested on: forebrain ischemia (neuronal cell death); format: in vivo, gerbil; conditions: 10 mg/kg; 7 days post-ischemia
Description: Blood flow to the brain was interrupted for 7 minutes by clamping the carotid arteries. The test compounds were administered as a 'single dose given intraperitoneally (i.p.) 30 minutes after reinstating blood flow. During the course of these experiments, the core body temperature of the animals was maintained at 37° C. to prevent any hypothermic reaction. […]

[13] = tested on: focal cerebral ischemia; test: Middle cerebral artery occlusion, permanent, surgical ligation; format: in vivo, rat; conditions: single dose 30 mg/kg i.p. 30 minutes after occlusion; 24 hours
Description: In the first study using this stroke model, one cerebral artery was permanently occluded by surgical ligation. The test compounds were administered 30 minutes after the occlusion by a single intraperitoneal (i.p.) injection. During the course of these experiments, the core body temperature of the animals was maintained at 37° C. to prevent any hypothermic reaction. Brains were assessed histologically for neuronal cell loss 24 hours later. Infarct volumes were calculated using the area of histological pallor from 10 slides and integrating the distance between each successive section.

[14] = tested on: locomotor activity; conditions: 32 mg/kg s.c.
Description: The first assay simply monitors locomotor activity during the first hour following peripheral (s.c. or i.p.) administration of test substance. […] Activity was quantified by counting the number of breaks in a phototube grid in a 60 min period.

[15] = tested on: thermal nociception; format: in vivo, rats; conditions: 0.3-3 nmol i.th.; remark: listed apart in the source
Description: In this standard assay, the thermal nociceptive stimulus was 52° C. warm water with the latency to tail flick or withdrawal taken as the endpoint.

[16] = tested on: acetic acid-induced writhing; format: in vivo, mice; conditions: i.p.
[17] = molecular target: voltage-sensitive Ca2+ channels (Rattus norvegicus, UniProt P22002); test: cell-based
Description: as §1

[18] = tested on: mouse cortical neurons; test: cells; conditions: Cortical neurone, read-out: IC50, prevention of NMDA-induced cell death
Description: The effective concentrations of NMDA receptor antagonists vary depending on the particular experimental conditions and the type of cell studied (cortical, hippocampal, striatal).

[19] = tested on: thermal nociception; format: in vivo, mice
[20] = tested on: motor performance; conditions: 32 mg/kg s.c.
Description: In this assay, animals are placed on a wire-holed grid suspended from a rotating metal bar which can be inverted. The animals are then scored for their ability to climb to the top or hang on to the grid. […] This assay provides an index of “behavioral disruption” that may result from ataxia, loss of the righting reflex, sedation, or muscle relaxation.

[21] = tested on: formalin-induced flinching; format: in vivo, Sprague-Dawley rats; conditions: 0.3-10 nmol i.th.
[22] = tested on: motor performance; test: Acute motor impairment (rotorod) in mice
Description: (§3) In this assay, Frings and CF1 mice were injected with test compound and placed on a knurled rod which rotated at a speed of 6 rpm. The ability of the mice to maintain equilibrium for long periods of time was determined; those mice that were unable to maintain equilibrium on the rotorod for 1 min in each of 3 trials were considered impaired.

[23] = Acute motor impairment (rotorod) in mice; conditions: mouse, in vivo, ip
Description: as §3

[24] = tested on: maximal electroshock-induced seizures; test: Maximal electroshock-induced seizures in mice; format: in vivo; conditions: for ED50: Mus musculus, mice
[25] = tested on: PCP-like stereotypic behavior; test: PCP-like stereotypic behavior (hyperexcitability and head weaving) in rats; conditions: 30 mg/kg i.p.
Description: We investigated whether the arylalkylamines would elicit such behaviors.

[26] = tested on: delayed rectifier potassium channel; test: Inhibition of delayed rectifier potassium channel in cultured N1E-115 neuroblastoma cells; format: cell-based; conditions: read-out: Delayed rectifier potassium channel: estimated IC50
[27] = tested on: PBQ-elicited writhing; format: in vivo; conditions: 16 mg/kg i.p.
Description: In the first series of experiments, the animals were administered an unpleasant stimulus (2-phenyl-1,4-benzoquinone, PBQ) which elicits a writhing response (abdominal stretching). Typically, the number of writhes occurring in a 5 min observation period is recorded. […] Nonsteroidal antiinflammatory agents are likewise effective in this model.

[28] = tested on: central muscarinic cholinergic receptor; format: binding, rat
[29] = tested on: induction of LTP; parameters: species or system rat; conditions: at 100 μM

voltage-sensitive Ca2+ channels, sequence (P22002 whole entry): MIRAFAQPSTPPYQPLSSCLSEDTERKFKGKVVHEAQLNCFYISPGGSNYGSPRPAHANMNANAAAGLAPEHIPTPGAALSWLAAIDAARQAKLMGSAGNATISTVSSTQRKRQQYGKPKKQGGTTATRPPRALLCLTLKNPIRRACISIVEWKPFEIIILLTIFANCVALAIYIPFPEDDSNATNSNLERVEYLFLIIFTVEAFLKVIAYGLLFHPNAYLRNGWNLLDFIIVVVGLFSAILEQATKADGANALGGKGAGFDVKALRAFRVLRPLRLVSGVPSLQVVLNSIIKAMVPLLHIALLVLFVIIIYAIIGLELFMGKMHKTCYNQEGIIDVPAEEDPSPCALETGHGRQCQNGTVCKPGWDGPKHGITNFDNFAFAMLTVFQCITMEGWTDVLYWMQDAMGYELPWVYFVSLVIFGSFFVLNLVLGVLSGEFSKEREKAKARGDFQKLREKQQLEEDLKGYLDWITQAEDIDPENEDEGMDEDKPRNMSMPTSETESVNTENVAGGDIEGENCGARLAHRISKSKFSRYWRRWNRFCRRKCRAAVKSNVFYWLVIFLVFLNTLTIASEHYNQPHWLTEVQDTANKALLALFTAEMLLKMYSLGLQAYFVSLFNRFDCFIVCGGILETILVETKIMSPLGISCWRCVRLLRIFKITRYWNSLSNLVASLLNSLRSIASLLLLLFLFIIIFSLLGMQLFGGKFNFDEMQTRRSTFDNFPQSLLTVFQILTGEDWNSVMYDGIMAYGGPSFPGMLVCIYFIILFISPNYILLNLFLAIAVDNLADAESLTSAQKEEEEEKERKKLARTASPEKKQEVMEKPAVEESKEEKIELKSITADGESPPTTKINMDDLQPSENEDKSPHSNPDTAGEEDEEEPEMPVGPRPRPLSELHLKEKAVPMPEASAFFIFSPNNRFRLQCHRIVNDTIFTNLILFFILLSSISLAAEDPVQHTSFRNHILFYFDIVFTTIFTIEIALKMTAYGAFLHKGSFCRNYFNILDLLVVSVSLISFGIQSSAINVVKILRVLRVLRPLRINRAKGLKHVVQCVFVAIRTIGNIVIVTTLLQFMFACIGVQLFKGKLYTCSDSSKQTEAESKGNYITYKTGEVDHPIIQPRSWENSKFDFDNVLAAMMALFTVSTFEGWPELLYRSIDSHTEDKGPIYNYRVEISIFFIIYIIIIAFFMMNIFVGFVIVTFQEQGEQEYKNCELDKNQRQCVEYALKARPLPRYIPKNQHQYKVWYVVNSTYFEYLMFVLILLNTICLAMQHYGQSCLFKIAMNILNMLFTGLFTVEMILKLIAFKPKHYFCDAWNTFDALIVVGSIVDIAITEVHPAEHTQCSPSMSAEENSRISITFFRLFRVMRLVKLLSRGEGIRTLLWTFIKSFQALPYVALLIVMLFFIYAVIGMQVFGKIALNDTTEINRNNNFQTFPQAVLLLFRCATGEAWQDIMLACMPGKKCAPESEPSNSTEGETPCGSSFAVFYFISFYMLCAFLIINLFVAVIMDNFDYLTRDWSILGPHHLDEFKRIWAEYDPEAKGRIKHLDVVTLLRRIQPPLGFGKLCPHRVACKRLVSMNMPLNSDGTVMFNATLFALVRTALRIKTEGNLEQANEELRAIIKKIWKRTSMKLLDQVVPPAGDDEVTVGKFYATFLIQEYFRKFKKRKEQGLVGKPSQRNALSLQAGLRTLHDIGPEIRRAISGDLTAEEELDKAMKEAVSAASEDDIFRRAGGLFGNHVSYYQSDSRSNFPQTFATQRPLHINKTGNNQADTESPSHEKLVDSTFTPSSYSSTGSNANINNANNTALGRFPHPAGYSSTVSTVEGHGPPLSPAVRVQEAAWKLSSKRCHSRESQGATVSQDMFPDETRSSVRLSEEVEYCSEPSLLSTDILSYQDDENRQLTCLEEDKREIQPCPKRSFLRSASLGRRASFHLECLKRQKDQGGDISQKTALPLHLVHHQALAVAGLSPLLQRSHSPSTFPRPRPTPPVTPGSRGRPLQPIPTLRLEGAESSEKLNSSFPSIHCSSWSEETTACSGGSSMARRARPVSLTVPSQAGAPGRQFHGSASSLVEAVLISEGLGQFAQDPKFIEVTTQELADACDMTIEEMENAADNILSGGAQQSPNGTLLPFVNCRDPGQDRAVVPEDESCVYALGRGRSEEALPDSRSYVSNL

SMILES: N=C(N)NCCCC(N)C(=O)NCCCNCCCNCCCCCNC(=O)C(CC(N)=O)NC(=O)Cc1ccc(O)cc1O (centres unmarked) [Compound 1]
- IC50 [1]: 126 µM
- substitution for PCP ([2]; 1-30 mg/kg i.p.): did not substitute for PCP
- IC50, prevention of sound-induced seizures ([3]; intracerebroventricular (i.c.v.) injection): 0.63 µg
- IC50, prevention of sound-induced seizures ([3]; intraperitoneal injection): 14.3 mg/kg
- Drop in Mean Arterial Blood Pressure ([4]; 1.5 μmoles/kg i.v.): 65 mm Hg at
- Drop in Mean Arterial Blood Pressure: duration ([4]; 1.5 μmoles/kg i.v.): i.v., 60 min
- IC50 ([5]; read-out: L-type calcium channel: estimated IC50, KCl depolarization-induced increases in intracellular calcium; cultured rat cerebellar granule cells): 257 µM
- effect on responses to NMDA and kainate [6]: blocked responses to NMDA at nanomolar concentrations without affecting the responses to kainate
- antinociceptive effect, hot plate [7]: dose- and time-dependent antinociceptive effects
- IC50 [8]: 647 µM
- Suppression of NMDA Receptor-Mediated Synaptic Transmission (concentration which suppresses) [9]: 10 to 30 µM
- IC50 ([9]; read-out: IC50 for the NMDA receptor-mediated response): 20 µM
- IC50 ([10]; read-out: IC50 against NMDA receptor-mediated increases in [Ca2+]i in cerebellar granule cells): 0.102 µM
- dose without neuronal vacuolization [11]: 100 mg/kg
- reduction in neuronal death / protection in region CA1 of the hippocampus [12]: 23%
- protection against neuronal cell loss [13]: approximately 15%
- effect on locomotor activity [14]: did not elicit hyperactivity
- analgesic effect, tail flick (52° C. warm water) [15]: dose- and time-dependent analgesic effect
- IC50, inhibition of acetic acid-induced writhing [16]: 10 mg/kg
- IC50 [17]: 808 µM
- IC50 [18]: 70 µM
- increase in latency to foot licking ([19]; 4 mg/kg s.c.): 136%
- increase in latency to jumping ([19]; 32 mg/kg s.c.): 360%
- motor performance in the inverted grid assay [20]: did not lessen the ability of DBA/2 mice to right themselves
- late-phase flinching, administered after the formalin ([21]; 10 min after formalin): significance was achieved only at the 10 nmol dose
- flinching behaviors, pretreatment to formalin ([21]; 10 min prior to formalin): effectively inhibited both early- and late-phase flinching behaviors
- motor impairment in CF1 mice ([22]; 4 μg i.c.v.): motor impairment
- dose that had to be exceeded before motor toxicity was evident ([22]; Frings mice, i.c.v.): exceeded 1.56 μg
- TD50 ([23]; Frings): 16.8 mg/kg
- effect against seizures elicited by maximal electroshock ([24]; CF1 mice, 4 μg i.c.v.): effective

SMILES: NCCC(c1ccccc1)c1ccccc1 [Compound 19, 3,3-diphenylpropylamine]
- IC50 [1]: 2.1 µM
- no generalization to PCP at doses up to the behaviorally active dose of ([2]; i.p., rats): ≤ 30 mg/kg
- without effect on blood pressure at doses up to ([4]; s.c.): up to 100 mg/kg
- IC50 ([5]; cultured rat cerebellar granule cells; read-out: L-type calcium channel: estimated IC50, KCl depolarization-induced increases in intracellular calcium): 10.2 µM
- Suppression of NMDA Receptor-Mediated Synaptic Transmission (concentration which suppresses) [9]: 100 to 300 µM
- IC50 ([10]; NMDA/glycine-induced increases in intracellular calcium, cultured rat cerebellar granule cells, read-out: IC50 (μM) vs. NMDA): 0.435 µM
- PCP-like stereotypic behavior (hyperexcitability and head weaving) [25]: no PCP-like stereotypic behavior
- IC50 [26]: 1 to 10 µM
- analgesic activity in the PBQ-induced writhing assay [27]: significant analgesic activity
- Central muscarinic cholinergic receptor: percent block of [3H]QNB binding ([28]; at 0.1 μM): 4% at
- Central muscarinic cholinergic receptor: percent block of [3H]QNB binding ([28]; at 10 μM): 0.174%
- analgesic activity in the hot-plate assay ([19]; 16 mg/kg i.p.): significant analgesic activity
- motor impairment ([22]; mice, 30 mg/kg p.o.): motor impairment
- TD50 [23]: 43.8 mg/kg
- ED50 ([24]; ip): 26.4 mg/kg
- ED50 ([24]; oral (p.o.)): 35 mg/kg
- LTP Assay (block of the induction of LTP) [29]: did block; also recorded: block at 100
